Where a name gives a salt, the structure may show the parent alone. Read-outs that look alike come from different tables or passages of the source.
Test system: Ramos B-Cell Line Stimulated with IL-4 (JAK-1 and JAK-3 / Stat-6, CD23)
Experiment: Assay for Ramos B-Cell Line Stimulated with IL-4 (CD23 upregulation, FACS)
Type: cell-based
Conditions: human Ramos B cells, compound 1 hour, IL-4 50 units/mL for 20-24 hours, anti-CD23-PE FACS, read-out: Example 2 (IC50)
Description: One means of assaying for such inhibition is detection of the effect of the 2,4-pyrimidinediamine compounds on the upregulation of downstream gene products. In the Ramos/IL4 assay, B-cells are stimulated with the cytokine Interleukin-4 (IL-4) leading to the activation of the JAK/Stat pathway through phosphorylation of the JAK family kinases, JAK1 and JAK3, which in turn phosphorylate and activate the transcription factor Stat-6. […] To study the effect of inhibitors (e.g., the 2,4-substituted pyrimindinediamine compounds described herein) on the JAK1 and JAK3 kinases, human Ramos B cells are stimulated with human IL-4. 20 to 24 hours post stimulation, cells are stained for upregulation of CD23 and analyzed using flow cytometry (FACS).
B-cells stimulated with cytokine Interleukin-4 (IL-4) activate the JAK/Stat pathway through phosphorylation of the JAK family kinases, JAK-1 and JAK-3, which in turn phosphorylate and activate the transcription factor Stat-6. […] To study the effect of inhibitors on the JAK family kinases, human Ramos B cells were stimulated with human IL-4.
Cells were maintained at a density of 3.5×10^5. The day before the experiment, Ramos B-cells were diluted to 3.5×10^5 cells/mL to ensure that they were in a logarithmic growth phase.
Cells were spun down and suspended in RPMI with 5% serum. 5×10^4 cells were used per point in a 96-well tissue culture plate. Cells were pre-incubated with compound or DMSO (Sigma-Aldrich, St. Louis, Mo., Cat No. D2650) vehicle control for 1 hour in a 37° C. incubator. Cells were then stimulated with IL-4 (Peprotech Inc., Rocky Hill, N.J., Cat No. 200-04) for a final concentration of 50 units/mL for 20-24 hours. […] Detection was performed using a BD LSR I System Flow Cytometer, purchased from Becton Dickinson Biosciences of San Jose, Calif.

Q: Which IC50 (Homo sapiens, Ramos) does the source give for `Cc1noc(Cc2ccc(Nc3nc(Nc4ccc(CC#N)cc4)ncc3F)cc2)n1` [Compound I-113, N2-(4-Cyanomethylphenyl)-5-fluoro-N4-[4-((3-methyl-1,2,4-oxadiazol-5-yl)methyl)phenyl]-2,4-pyrimidinediamine] here?
A: 149 nM

Q: For `N#CCOc1ccc(Nc2nc(Nc3cccc(C#N)c3)ncc2F)cc1` [Compound I-30, N4-(4-Cyanomethoxyphenyl)-N2-(3-cyanophenyl)-5-fluoro-2,4-pyrimidinediamine], which IC50 (Homo sapiens, Ramos) is on record?
A: 71 nM

Q: For `N#CCOc1ccc(Nc2nc(Nc3ccc(C#N)cc3)ncc2F)cc1` [Compound I-29, N2-(4-Cyanophenyl)-N4-(4-cyanomethoxyphenyl)-5-fluoro-2,4-pyrimidinediamine], which IC50 (Homo sapiens, Ramos) is on record?
A: 74.6 nM

Q: Which IC50 (Homo sapiens, Ramos) does the source give for `N#CCOc1cccc(Nc2nc(Nc3ccc(C#N)cc3)ncc2F)c1` [Compound I-46, N4-(3-Cyanomethoxyphenyl)-N2-(4-cyanophenyl)-5-fluoro-2,4-pyrimidinediamine] here?
A: 1470 nM

Q: `Cc1noc(COc2cccc(Nc3nc(Nc4cccc(C(N)=O)c4)ncc3F)c2)n1` [Compound I-128, N2-(3-Aminocarbonylphenyl)-5-fluoro-N4-[3-((3-methyl-1,2,4-oxadiazol-5-yl)methyleneoxy)phenyl]-2,4-pyrimidinediamine] was tested. Which IC50 did it give?
A: 206 nM

Q: Which IC50 (Homo sapiens, Ramos) does the source give for `CNC(=O)c1cc(Nc2ncc(F)c(Nc3ccc(CC#N)cc3)n2)ccc1N1CCN(C)CC1` [Compound I-75, N4-(4-Cyanomethylphenyl)-5-fluoro-N2-[3-methylaminocarbonyl-4-(4-methylpiperazin-1-yl)phenyl]-2,4-pyrimidinediamine] here?
A: 694 nM

Q: With `CNC(=O)c1cc(Nc2ncc(F)c(Nc3ccc(OCC#N)cc3)n2)ccc1N1CCN(C)CC1` [Compound I-43, N4-(4-Cyanomethoxyphenyl)-5-fluoro-N2-[3-methylaminocarbonyl-4-(4-methylpiperazin-1-yl)phenyl]-2,4-pyrimidinediamine] as the compound, how does the IC50 (Homo sapiens, Ramos) read?
A: 3.56 nM

Q: Which IC50 (Homo sapiens, Ramos) does the source give for `CCc1cc(Nc2ncc(F)c(Nc3ccc4c(c3)NC(=O)CO4)n2)cc(C#N)c1Cl` [II-27, N2-(4-Chloro-3-cyano-5-ethylphenyl)-5-fluoro-N4-(3-oxo-2H,4H-benzo[1,4]oxazin-6-yl)-2,4-pyrimidinediamine] here?
A: 4820 nM

Q: `CNC(=O)COc1cc(Nc2ncc(F)c(Nc3ccc4c(c3)NC(=O)C(F)(F)O4)n2)ccc1OC` [II-34, N4-(2,2-Difluoro-3-oxo-4H-benzo[1,4]oxazin-6-yl)-5-fluoro-N2-[4-methoxy-3-(N-methylaminocarbonylmethoxy)phenyl]-2,4-pyrimidinediamine] was tested. Which IC50 (Homo sapiens, Ramos) did it give?
A: 391 nM

Q: For “N2-[1-(2-(N-Morpholinyl)ethylaminocarbonyl)-1H-indol-6-yl]-N4-[4-(2-propynyloxy)phenyl]-2,4-pyrimidinediamine [VI-2]”, which IC50 is on record?
A: 1010 nM

Q: How did the IC50 (Homo sapiens, Ramos) turn out when `CC1(C)Oc2ccc(Nc3nc(Nc4ccc5c(c4)C(=O)NCC5)ncc3F)nc2NC1=O` [IV-1, N4-[2,2-Dimethyl-3-oxo-4H-5-pyrido[1,4]oxazin-6-yl]-5-fluoro-N2-(I-oxo-1,2,3,4-tetrahydroisoquinolin-7-yl)-2,4-pyrimidinediamine] was run?
A: 287 nM

Q: For `N#CCc1ccc(Nc2nc(Nc3ccc(C#N)cc3)ncc2F)cc1` [Compound I-69, N4-(4-Cyanomethylphenyl)-N2-(4-cyanophenyl)-5-fluoro-2,4-pyrimidinediamine], which IC50 (Homo sapiens, Ramos) is on record?
A: 7190 nM

Q: How did the IC50 turn out when “N2-(4-Chloro-3-cyano-5-ethyl phenyl)-N4-(2,2-dimethyl-3-oxo-4H-5-pyrido[1,4]oxazin-6-yl)-5-fluoro-2,4-pyrimidinediamine [II-26]” was run?
A: 16100 nM

Q: Which IC50 (Homo sapiens, Ramos) does the source give for `CC(C)(C#N)Oc1ccc(Nc2nc(Nc3cccc(C(N)=O)c3)ncc2F)cc1` [Compound I-85, N2-(3-Aminocarbonylphenyl)-N4-[4-(1-cyano-1-methylethoxy)phenyl]-5-fluoro-2,4-pyrimidinediamine] here?
A: 760 nM

Q: How did the IC50 (Homo sapiens, Ramos) turn out when `Cc1cc(Nc2nc(Nc3ccc(CC#N)cc3)ncc2F)ccc1OC(C)C#N` (centres unmarked) [Compound I-94, N4-[4-(1-Cyanoethoxy)-3-methylphenyl]-N2-(4-cyanomethylphenyl)-5-fluoro-2,4-pyrimidinediamine] was run?
A: 381 nM

Q: `CCc1cc(Nc2ncc(F)c(Nc3ccc4c(c3)NC(=O)C(C)(C)O4)n2)cc(C#N)c1Cl` [II-25, N2-(4-Chloro-3-cyano-5-ethylphenyl)-N4-(2,2-dimethyl-3-oxo-4H-benzo[1,4]oxazin-6-yl)-5-fluoro-2,4-pyrimidinediamine] was tested. Which IC50 (Homo sapiens, Ramos) did it give?
A: 1430 nM

Q: How did the IC50 (Homo sapiens, Ramos) turn out when `N#CCc1ccc(Nc2nc(Nc3cccc(C(N)=O)c3)ncc2F)cc1` [Compound I-68, N2-(3-Aminocarbonylphenyl)-N4-(4-cyanomethylphenyl)-5-fluoro-2,4-pyrimidinediamine] was run?
A: 1620 nM

Q: How did the IC50 (Homo sapiens, Ramos) turn out when `CC(C)OC(=O)COc1ccc(Nc2nc(Nc3ccc(C(=O)N4CCN(C)CC4)cc3)ncc2F)cc1` [Compound I-26, 5-Fluoro-N4-[4-((1-methylethoxy)carbonylmethoxy)phenyl]-N2-[4-((4-methylpiperazin-1-yl)carbonyl)phenyl]-2,4-pyrimidinediamine] was run?
A: 1830 nM

Q: For `Cc1noc(COc2ccc(Nc3nc(Nc4ccc(C(N)=O)cc4)ncc3F)cc2)n1` [Compound I-10, N2-(4-Aminocarbonylphenyl)-5-fluoro-N4-[4-((3-methyl-1,2,4-oxadiazol-5-yl)methyleneoxy)phenyl]-2,4-pyrimidinediamine Hydrogen Chloride Salt], which IC50 is on record?
A: 4.85 nM

Q: With `CN1CCN(C(=O)c2ccc(Nc3ncc(F)c(Nc4cccc(OCC#N)c4)n3)cc2)CC1` [Compound I-52, N4-(3-Cyanomethoxyphenyl)-5-fluoro-N2-[4-((4-methylpiperazin-1-yl)carbonyl)phenyl]-2,4-pyrimidinediamine] as the compound, how does the IC50 read?
A: 289 nM

Q: With `CN1CCN(c2ccc(Nc3ncc(F)c(Nc4ccc(OCC(N)=O)cc4)n3)cc2C(N)=O)CC1` [Compound I-38, N2-[3-Aminocarbonyl-4-(4-methylpiperazin-1-yl)phenyl]-N4-(4-aminocarbonylmethoxyphenyl)-5-fluoro-2,4-pyrimidinediamine] as the compound, how does the IC50 (Homo sapiens, Ramos) read?
A: 533 nM

Q: Which IC50 does the source give for “N2-(4-Cyanomethyl phenyl)-5-fluoro-N4-(5-methoxycarbonylthiophen-2-yl)-2,4-pyrimidinediamine [Compound I-122]” here?
A: 723 nM

Q: `Cc1cc(Nc2nc(Nc3ccc(C(N)=O)cc3)ncc2F)cc(C)c1OCC#N` [Compound I-90, N2-(4-Aminocarbonylphenyl)-N4-(4-cyanomethoxy-3,5-dimethylphenyl)-5-fluoro-2,4-pyrimidinediamine] was tested. Which IC50 (Homo sapiens, Ramos) did it give?
A: 91.5 nM

Q: `CN1CCN(C(=O)c2ccc(Nc3ncc(F)c(Nc4cccc(OCC(N)=O)c4)n3)cc2)CC1` [Compound I-49, N4-(3-Aminocarbonylmethoxyphenyl)-5-fluoro-N2-[4-((4-methylpiperazin-1-yl)carbonyl)phenyl]-2,4-pyrimidinediamine] was tested. Which IC50 did it give?
A: 2290 nM

Q: `NC(=O)c1ccc(Nc2ncc(F)c(Nc3cccc(-c4ncco4)c3)n2)cc1` [Compound I-13, N2-(4-Aminocarbonylphenyl)-5-fluoro-N4-[3-(oxazol-2-yl)phenyl]-2,4-pyrimidinediamine] was tested. Which IC50 (Homo sapiens, Ramos) did it give?
A: 752 nM

Q: Which IC50 (Homo sapiens, Ramos) does the source give for `Cc1nc(COc2ccc(Nc3nc(Nc4cccc(C#N)c4)ncc3F)cc2)no1` [Compound I-59, N2-(3-Cyanophenyl)-5-fluoro-N4-[4-((5-methyl-1,2,4-oxadiazol-3-yl)methoxy)phenyl]-2,4-pyrimidinediamine] here?
A: 596 nM

Q: With `CCc1cc(Nc2ncc(F)c(Nc3ccc(CC#N)cc3)n2)cc(C#N)c1Cl` [Compound I-106, N2-(4-Chloro-3-cyano-5-ethylphenyl)-N4-(4-cyanomethylphenyl)-5-fluoro-2,4-pyrimidinediamine] as the compound, how does the IC50 (Homo sapiens, Ramos) read?
A: 7020 nM

Q: Which IC50 (Homo sapiens, Ramos) does the source give for `N#CCOc1ccc(Nc2nc(Nc3ccc(C(N)=O)cc3)ncc2F)cc1` [Compound I-27, N2-(4-Aminocarbonylphenyl)-N4-(4-cyanomethoxyphenyl)-5-fluoro-2,4-pyrimidinediamine] here?
A: 5.21 nM

Q: With `N#CCOc1cccc(Nc2nc(Nc3cccc(C(N)=O)c3)ncc2F)c1` [Compound I-45, N2-(3-Aminocarbonylphenyl)-N4-(3-cyanomethoxyphenyl)-5-fluoro-2,4-pyrimidinediamine] as the compound, how does the IC50 (Homo sapiens, Ramos) read?
A: 426 nM

Q: How did the IC50 (Homo sapiens, Ramos) turn out when `COc1ccc(Nc2nc(Nc3ccc(C(=O)Nc4ccnn4C)cc3)ncc2F)cc1Cl` [Compound I-4, N4-(3-Chloro-4-methoxyphenyl)-5-fluoro-N2-[4-((1-methyl-1H-pyrazol-5-yl)aminocarbonyl)phenyl]-2,4-pyrimidinediamine] was run?
A: 57.5 nM

Q: For `CNC(=O)COc1cccc(Nc2ncc(F)c(Nc3ccc4c(c3)N(CC#N)C(=O)CO4)n2)c1` [II-11, N4-(4-Cyanomethyl-3-oxo-2H-benzo[1,4]oxazin-6-yl)-5-fluoro-N2-[3-(N-methylaminocarbonylmethyleneoxy)phenyl]-2,4-pyrimidinediamine], which IC50 is on record?
A: 28 nM

Q: Which IC50 does the source give for `CN1CCN(C(=O)c2cccc(Nc3ncc(F)c(Nc4ccc(OCC#N)cc4)n3)c2)CC1` [Compound I-40] here?
A: 567 nM

From US7834024B2, “Compositions and methods for inhibition of the JAK pathway” (Rigel Pharmaceuticals, Inc., priority 2007, dated 2010)
